Experimental data as given in paper PMC4539532 (Bioorganic & medicinal chemistry letters, 2015).

Assays:
[1] = in vitro microsomal stability; conditions: n=2, T1/2=Ln2/κ
[2] = cited from earlier work; for Tmax for brain: rat brain, intraperitoneal injection
[3] = molecular target: mGlu4 (Homo sapiens, UniProt Q14833); experiment: competitive binding assay with [^3H]2 in mGlu4 transfected CHO cells; conditions: 14 versus 13; 23 versus 2
[4] = molecular target: mGlu5 (Homo sapiens, UniProt P41594); experiment: selectivity functional assay on mGlu5; assay type: cell-based
[5] = molecular target: mGlu1 (Homo sapiens, UniProt Q13255); experiment: selectivity functional assay on mGlu1; assay type: cell-based
[6] = molecular target: mGlu6 (Homo sapiens, UniProt O15303); experiment: selectivity functional assay on mGlu6; assay type: cell-based
[7] = molecular target: mGlu2 (Homo sapiens, UniProt Q14416); experiment: selectivity functional assay on mGlu2; assay type: cell-based
[8] = molecular target: mGlu8 (Homo sapiens, UniProt O00222); experiment: selectivity functional assay on mGlu8; assay type: cell-based
[9] = PET ligand for PBR, cited from earlier work

Chain of mGlu4 (Q14833 33-912): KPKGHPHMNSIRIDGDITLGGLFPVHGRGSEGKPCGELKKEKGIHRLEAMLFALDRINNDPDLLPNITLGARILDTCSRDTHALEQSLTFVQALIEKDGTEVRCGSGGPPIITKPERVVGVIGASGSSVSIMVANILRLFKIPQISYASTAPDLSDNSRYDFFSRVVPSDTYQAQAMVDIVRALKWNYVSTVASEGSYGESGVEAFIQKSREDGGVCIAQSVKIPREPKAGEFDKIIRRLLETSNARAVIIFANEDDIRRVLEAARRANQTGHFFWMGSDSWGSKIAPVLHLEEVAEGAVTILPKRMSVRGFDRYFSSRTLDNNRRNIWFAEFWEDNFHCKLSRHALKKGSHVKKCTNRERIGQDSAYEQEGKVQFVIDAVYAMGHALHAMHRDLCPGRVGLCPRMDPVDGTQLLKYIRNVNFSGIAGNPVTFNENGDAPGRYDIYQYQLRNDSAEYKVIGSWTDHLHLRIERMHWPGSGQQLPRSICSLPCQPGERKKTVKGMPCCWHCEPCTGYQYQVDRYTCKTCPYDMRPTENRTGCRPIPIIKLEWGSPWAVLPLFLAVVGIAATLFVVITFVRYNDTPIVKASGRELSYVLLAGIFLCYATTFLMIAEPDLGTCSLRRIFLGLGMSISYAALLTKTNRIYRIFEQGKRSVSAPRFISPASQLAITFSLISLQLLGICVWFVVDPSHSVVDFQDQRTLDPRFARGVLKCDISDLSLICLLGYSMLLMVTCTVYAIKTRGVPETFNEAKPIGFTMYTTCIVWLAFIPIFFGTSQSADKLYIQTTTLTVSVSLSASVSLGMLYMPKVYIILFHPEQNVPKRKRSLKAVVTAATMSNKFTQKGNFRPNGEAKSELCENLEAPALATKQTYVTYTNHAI
Chain of mGlu2 (Q14416 19-872): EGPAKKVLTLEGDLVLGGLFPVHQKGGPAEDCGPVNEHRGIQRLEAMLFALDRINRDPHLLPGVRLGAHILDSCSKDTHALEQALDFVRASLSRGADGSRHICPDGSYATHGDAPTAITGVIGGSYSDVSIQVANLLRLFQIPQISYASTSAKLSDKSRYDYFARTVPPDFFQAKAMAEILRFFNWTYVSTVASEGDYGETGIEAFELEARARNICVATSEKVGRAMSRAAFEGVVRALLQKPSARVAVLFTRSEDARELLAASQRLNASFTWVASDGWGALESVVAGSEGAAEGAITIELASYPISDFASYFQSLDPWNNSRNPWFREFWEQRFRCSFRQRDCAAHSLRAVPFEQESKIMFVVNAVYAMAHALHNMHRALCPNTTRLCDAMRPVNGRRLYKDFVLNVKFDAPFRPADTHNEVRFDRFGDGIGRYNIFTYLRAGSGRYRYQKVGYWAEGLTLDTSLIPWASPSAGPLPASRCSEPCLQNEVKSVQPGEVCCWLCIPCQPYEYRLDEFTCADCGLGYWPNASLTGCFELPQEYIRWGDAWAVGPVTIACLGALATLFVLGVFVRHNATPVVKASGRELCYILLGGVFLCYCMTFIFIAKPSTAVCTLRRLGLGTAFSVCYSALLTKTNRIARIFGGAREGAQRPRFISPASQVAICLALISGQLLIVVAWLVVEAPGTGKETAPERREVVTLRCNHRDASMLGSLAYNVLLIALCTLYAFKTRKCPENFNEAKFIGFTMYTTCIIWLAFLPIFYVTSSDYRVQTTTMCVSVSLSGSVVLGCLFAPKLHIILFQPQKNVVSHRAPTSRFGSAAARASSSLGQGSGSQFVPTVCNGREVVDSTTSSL
Chain of mGlu5 (P41594 21-1212): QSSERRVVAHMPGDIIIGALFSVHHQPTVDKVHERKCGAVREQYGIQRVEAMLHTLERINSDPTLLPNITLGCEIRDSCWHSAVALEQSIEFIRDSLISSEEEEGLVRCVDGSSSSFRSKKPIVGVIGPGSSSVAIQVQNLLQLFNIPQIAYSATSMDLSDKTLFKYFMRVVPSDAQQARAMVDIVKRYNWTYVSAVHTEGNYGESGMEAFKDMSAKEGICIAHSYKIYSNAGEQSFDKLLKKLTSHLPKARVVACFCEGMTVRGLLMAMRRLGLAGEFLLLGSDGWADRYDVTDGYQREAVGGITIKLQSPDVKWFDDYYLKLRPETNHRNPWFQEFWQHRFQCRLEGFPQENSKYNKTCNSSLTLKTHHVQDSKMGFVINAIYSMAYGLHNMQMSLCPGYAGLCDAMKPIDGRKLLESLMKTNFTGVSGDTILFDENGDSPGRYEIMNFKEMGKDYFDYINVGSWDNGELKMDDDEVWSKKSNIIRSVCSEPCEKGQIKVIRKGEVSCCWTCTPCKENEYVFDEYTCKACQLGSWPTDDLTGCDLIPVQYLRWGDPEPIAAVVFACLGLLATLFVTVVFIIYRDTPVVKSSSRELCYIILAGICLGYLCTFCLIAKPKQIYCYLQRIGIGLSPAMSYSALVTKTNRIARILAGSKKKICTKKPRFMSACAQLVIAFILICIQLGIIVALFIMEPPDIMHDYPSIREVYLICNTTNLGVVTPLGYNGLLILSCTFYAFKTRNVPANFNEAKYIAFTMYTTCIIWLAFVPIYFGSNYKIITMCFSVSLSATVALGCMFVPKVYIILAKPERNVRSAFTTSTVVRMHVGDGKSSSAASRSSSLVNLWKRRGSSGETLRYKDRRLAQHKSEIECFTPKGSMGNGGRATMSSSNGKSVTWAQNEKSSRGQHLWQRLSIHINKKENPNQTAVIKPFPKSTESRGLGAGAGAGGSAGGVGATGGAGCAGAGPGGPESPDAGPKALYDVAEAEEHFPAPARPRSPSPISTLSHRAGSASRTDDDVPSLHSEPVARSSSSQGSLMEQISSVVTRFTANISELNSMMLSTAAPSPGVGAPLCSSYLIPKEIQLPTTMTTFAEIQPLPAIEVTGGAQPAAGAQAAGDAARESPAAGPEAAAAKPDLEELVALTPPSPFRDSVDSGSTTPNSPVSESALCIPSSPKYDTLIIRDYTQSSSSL
Chain of mGlu1 (Q13255 19-1194): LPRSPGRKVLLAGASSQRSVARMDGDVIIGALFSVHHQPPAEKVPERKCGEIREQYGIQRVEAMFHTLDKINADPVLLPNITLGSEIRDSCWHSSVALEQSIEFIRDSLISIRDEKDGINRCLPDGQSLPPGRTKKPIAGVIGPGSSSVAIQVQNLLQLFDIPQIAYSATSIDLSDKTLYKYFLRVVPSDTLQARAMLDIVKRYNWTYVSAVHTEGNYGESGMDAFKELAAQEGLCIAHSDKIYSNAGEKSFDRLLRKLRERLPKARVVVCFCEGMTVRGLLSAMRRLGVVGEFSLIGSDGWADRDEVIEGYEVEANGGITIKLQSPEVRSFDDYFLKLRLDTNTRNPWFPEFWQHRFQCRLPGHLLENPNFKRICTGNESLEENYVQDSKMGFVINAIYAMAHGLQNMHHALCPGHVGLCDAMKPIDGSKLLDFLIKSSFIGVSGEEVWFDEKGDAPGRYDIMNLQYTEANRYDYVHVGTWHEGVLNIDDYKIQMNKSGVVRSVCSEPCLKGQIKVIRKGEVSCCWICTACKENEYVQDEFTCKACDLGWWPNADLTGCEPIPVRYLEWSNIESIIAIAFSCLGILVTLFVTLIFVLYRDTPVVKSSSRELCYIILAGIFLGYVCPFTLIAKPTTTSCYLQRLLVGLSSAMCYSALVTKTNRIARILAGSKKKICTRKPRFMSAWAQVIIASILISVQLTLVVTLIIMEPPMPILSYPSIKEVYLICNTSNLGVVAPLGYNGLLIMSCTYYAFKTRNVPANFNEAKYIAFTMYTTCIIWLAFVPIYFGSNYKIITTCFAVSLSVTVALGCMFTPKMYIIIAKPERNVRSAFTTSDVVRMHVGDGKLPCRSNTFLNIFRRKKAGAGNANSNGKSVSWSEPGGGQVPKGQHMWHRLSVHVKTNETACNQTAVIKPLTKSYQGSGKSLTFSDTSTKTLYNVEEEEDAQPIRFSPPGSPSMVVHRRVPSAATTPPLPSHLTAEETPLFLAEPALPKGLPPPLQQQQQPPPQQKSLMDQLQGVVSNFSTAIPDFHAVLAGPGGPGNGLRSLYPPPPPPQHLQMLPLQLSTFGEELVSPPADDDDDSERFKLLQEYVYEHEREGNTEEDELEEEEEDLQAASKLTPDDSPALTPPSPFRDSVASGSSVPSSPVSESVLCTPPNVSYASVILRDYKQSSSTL
Chain of mGlu6 (O15303 25-877): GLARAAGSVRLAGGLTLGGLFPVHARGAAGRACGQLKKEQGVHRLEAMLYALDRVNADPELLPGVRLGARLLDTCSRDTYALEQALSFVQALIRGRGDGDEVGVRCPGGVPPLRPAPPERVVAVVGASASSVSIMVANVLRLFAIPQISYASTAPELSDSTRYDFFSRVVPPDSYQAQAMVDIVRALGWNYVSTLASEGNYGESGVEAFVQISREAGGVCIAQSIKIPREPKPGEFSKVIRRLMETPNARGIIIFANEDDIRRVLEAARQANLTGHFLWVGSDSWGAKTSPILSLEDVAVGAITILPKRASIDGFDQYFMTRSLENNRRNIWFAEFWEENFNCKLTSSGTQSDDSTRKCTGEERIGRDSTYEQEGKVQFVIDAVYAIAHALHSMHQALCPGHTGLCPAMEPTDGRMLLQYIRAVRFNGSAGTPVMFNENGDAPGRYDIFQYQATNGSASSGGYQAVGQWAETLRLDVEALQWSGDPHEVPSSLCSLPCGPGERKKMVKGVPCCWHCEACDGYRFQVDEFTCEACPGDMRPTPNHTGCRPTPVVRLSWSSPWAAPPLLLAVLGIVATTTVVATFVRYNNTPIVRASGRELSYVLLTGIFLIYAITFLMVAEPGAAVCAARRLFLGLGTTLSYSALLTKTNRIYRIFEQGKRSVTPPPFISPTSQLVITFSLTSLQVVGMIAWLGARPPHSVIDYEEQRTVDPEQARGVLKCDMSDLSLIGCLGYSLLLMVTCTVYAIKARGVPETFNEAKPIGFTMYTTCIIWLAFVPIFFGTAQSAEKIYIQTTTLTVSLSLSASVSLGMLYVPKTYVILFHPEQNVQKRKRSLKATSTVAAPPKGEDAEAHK

## COc1cc(NC(=O)c2ccccn2)ccc1Cl [Compound 2]
[1]
  κ (decay constant, slope of log concentration vs time profile): 0.141
[2]
  Tmax for brain: 30 min

## O=C(Nc1cccc(OC(F)F)c1)c1ccccn1 [Compound 3]
[1]
  κ (decay constant, slope of log concentration vs time profile): 0.132
[2]
  Tmax for brain: 30 min
[2]; rat, AUC0–8h, Brain/AUC0–8h, Plasma
  brain:plasma (B/P) partition coefficient: 9.9

## Cc1ccnc(Nc2nc(-c3cn[nH]c3)c(C)s2)n1 [Compound 4]
[1]
  κ (decay constant, slope of log concentration vs time profile): 0.099

## CSc1cccc(NC(=O)c2ccccn2)c1 [Compound 14]
[3]
  fold enhancement in affinity: 2.8 fold

## O=C(Nc1ccc(Cl)c(OCF)c1)c1ccccn1 [Compound 23]
[1]
  κ (decay constant, slope of log concentration vs time profile): 0.120
[3]
  fold enhancement in affinity: 1.6 fold

## [2H]C([2H])(F)Oc1cc(NC(=O)c2ccccn2)ccc1Cl [Compound 24]
[4]
  activity against mGlu5: little activity
[1]
  κ (decay constant, slope of log concentration vs time profile): 0.093
[5]
  activity against mGlu1: little activity
[6]
  activity against mGlu6: little activity
[7]
  activity against mGlu2: little activity
[8]
  activity against mGlu8: little activity

## [2H]C([2H])([18F])Oc1ccc(OC)cc1CN(C(C)=O)c1cc(F)ccc1Oc1ccccc1 [N-(5-fluoro-2-phenoxyphenyl)-N-(2-[^18F]fluoromethoxy-d2-5-methoxybenzyl)acetamide]
[9]; brain
  half time (T1/2) in the brain: > 60 min
[9]; plasma
  half time (T1/2) in the plasma: 2.575 min
